Oligonucleotides are written 5' to 3', each unit as a sugar letter and its base; * is a phosphorothioate linkage, no mark a phosphodiester; rarer units and linkages stand in square brackets, end groups in braces. Plain capitals give the bases only. d = 2'-deoxy (DNA)
Assays:
[1] = system: AdHBV (Hepatitis B Virus); assay: Chronic AdHBV infection, HBc-DNA vaccination followed by TLR9-L at d12; assay type: in vivo, mice
Source text: (a) Mice with chronic AdHBV-infection after 1×10^8 ifu AdHBV-infection. Time course of serum ALT following HBc-DNA vaccination (d0) and TLR9-L or CTRL treatment (d12). OVA-DNA vaccination as control. (n=5 per group). (b-f) At d15 after vaccination, (b) immunohistochemistry for CD11 b and CD8 in the liver as described in (a) at d15 after vaccination; (c) increase of HBc93-100-specific CTLs in spleen and liver detected by dextramer-staining. (n=3 per group), ND, not detectable; (d) IFNγ-producing HBc93-100-specific CTLs isolated from livers of mice after HBc-peptide-specific restimulation ex vivo; (e) total numbers of IFNγ-producing HBc93-100-specific CTLs after peptide-specific restimulation ex vivo per gram liver (n=3, per group); (f) PD-1 expression levels on HBc93-100-specific CTLs directly ex vivo. (g) Serum HBeAg levels from mice as described in (a). (h) Immunohistochemical detection and (i) quantification of HBcore-Ag-positive hepatocytes at d42 after vaccination. HPF, high power field (magnification, 100×). *P<0.05, **P<0.01, ***P<0.001 (paired Student's t-test). Data are representative of three experiments (a, c, d, e, f, g) or two experiments (b, h, i) (a, c, e, i; error bars, s.d.).
C57BL/6J mice were infected with 1×10^8 ifu AdHBV intravenously leading to chronic AdHBV infection, as reported previously (Huang et al. Gastroenterology 2012; 142:1447-50). DNA immunization was performed as described (Huang et al. Gastroenterology 2012; 142:1447-50). After immunization, HBeAg and serum ALT (alanine aminotransferase) activity measured using GPT strips on a REFLOVET™. Plus reader (Roche) were checked at indicated time points. Livers were collected for immunohistochemical analysis. Analysis of CTL number and function ex vivo was done as described previously (Huang et al. Gastroenterology 2012; 142:1447-50).
In this model, therapeutic DNA-vaccination leads to a weak increase in circulating HBV-specific CTLs but fails to control chronic_AdHBV infection. Mice with chronic AdHBV infection were subjected to DNA-vaccination with plasmids coding for the HBV core (HBc) antigen or OVA and received TLR9-L treatment 12 d later.

[2] = system: CD8+ T cells (TCM, TEM); assay: Proliferation of adoptively transferred TCM and TEM in the liver (BrdU incorporation, 7-AAD); assay type: in vivo, mice; conditions: 3 days after intravenous TLR9-ligand
[3] = system: OT-I CTLs; assay: Hepatic OT-I CTL expansion and iMATE formation in AdLGO- or AdLG-infected mice
[4] = system: recombinant adenovirus expressing OVA and luciferase (AdLOG); assay: Acute adenoviral infection, in vivo bioluminescence as indicator of antiviral CTL activity in the liver
[5] = system: CTLs; assay: Local CTL expansion in iMATEs in the liver after systemic TLR9-L application; assay type: in vivo, mice
Source text: We discovered that CTL activation by simultaneous stimulation through the TCR, CD28 and IL-12 in vitro, together with systemic application of TLR9-L led to a 50-fold expansion of CTLs locally in the liver. Myeloid cell aggregates, herewith termed iMATEs, which formed in the liver upon TLR9-signaling, facilitate massive CTL expansion, which contributes to anti-viral immunity and overcomes chronic viral infection in mice.

[6] = system: lymphocytic choriomeningitis virus (LCMV); assay type: in vivo, mice
[7] = TLR9-L at d12 after HBcore-DNA vaccination

In the case of “5′-S-TCCATGACGTTCCTGATGCT-3′ (DNA dT*dC*dC*dA*dT*dG*dA*dC*dG*dT*dT*dC*dC*dT*dG*dA*dT*dG*dC*dT) [TLR9-L, ID; No. 1, from TIB MOLBIOL]”, the “serum ALT” value ([1]; DNA vaccination (HBc or OVA) and TLR9-L 12 d later, most pronounced in HBc-vaccinated mice) is reported as “transient rise”, the “serum HBeAg levels” value ([1]; HBc-DNA vaccination in combination with TLR9-L, after 28 d) is reported as “significant downregulation” and the “HBV-infected (HBcore-Ag-positive) hepatocytes” value ([1]; HBc-DNA vaccination in combination with TLR9-L, d42) is reported as “elimination”. For the same substance, the “PD1 expression on recently activated CD69+ HBcore-specific CTLs” value ([1]; HBc-DNA vaccination plus TLR9-L) was “lower expression levels”, the “IFNgamma expression of HBcore-specific CTLs upon antigen-specific restimulation ex vivo” value [1, 7] was “functional and expressed IFNγ” and the “expansion of HBc-specific CTLs in livers” value [1, 7] was “pronounced expansion”. For the same substance, the iMATE formation ([1]; mice with chronic AdHBV infection) was “induced iMATE formation”, the “proliferation of adoptively transferred TEM in the liver” value [2] was “marked proliferation” and the “proliferation of adoptively transferred TCM in the liver” value ([2]; cells in S and G2-M phase) was “strong proliferation”. For the same substance, the “numbers of hepatic OT-I CTLs” value ([3]; AdLG-infected mice (no OVA antigen), 1x10^5 activated OT-I CTLs plus TLR9-L) was “increase”, the “further expansion of OT-I CTLs” value ([3]; AdLGO-infected TLR9-L-injected mice, compared with AdLG-infected mice given TLR9-L) was 7 fold and the “formation of iMATEs” value ([3]; upon TLR9-L injection in adenovirus-infected mice) was “further improved”. For the same substance, the “in vivo bioluminescence (hepatic viral luciferase expression)” value ([4]; TLR9-L application alone, mice infected with 10^6 ifu AdLOG) was “did not significantly reduce”, the “time to efficient control of hepatic viral luciferase expression” value ([4]; transfer of 10^4 OT-I CTLs together with TLR9-L, 10^6 ifu AdLOG) was no more than 4 days and the “expansion of CTLs locally in the liver” value ([5]; CTLs activated in vitro through TCR, CD28 and IL-12, with systemic TLR9-L) was 50 fold. The autoimmunity ([5]; single TLR9-L application) was “did not trigger autoimmunity”, the “numbers of LCMV gp33-specific CTLs in the liver” value ([6]; LCMV-specific CTL transfer (10^6/mouse) together with TLR9-L at d0, d7 and d10) was “significant increase” and the “LCMV titers in serum and liver” value ([6]; LCMV-specific CTL transfer together with TLR9-L injection) was “dropped to background levels”. For the same substance, the “numbers of LCMV-specific CTLs” value ([6]; TLR9-L application alone, d14 after the first transfer) was “did not lead to significant increases” and the “iMATE induction in livers” value ([6]; chronic LCMV-infected mice) was “can be induced”.
